In ChEMBL document CHEMBL3085742, “Experimental confirmation of new drug-target interactions predicted by Drug Profile Matching” (J Med Chem, 2013):

What was measured:
[1] = target: T1, Prostaglandin G/H synthase 1 (Homo sapiens, UniProt P23219); test: Inhibition of COX-1 (unknown origin) using arachidonic acid as substrate assessed as formation of prostanoid products at 500 uM preincubated for 10 mins prior to substrate addition measured after 2 mins by Ellman's method relative to control
[2] = target: D(1A) dopamine receptor (Homo sapiens) (UniProt P21728); test: Agonist activity at human recombinant dopamine D1 receptor expressed in CHOK1 cells assessed as stimulation of cAMP accumulation at 100 uM after 30 mins by HTRF assay relative to SKF81297; assay type: functional, cell-based; conditions: CHO-K1
[3] = target: D(1A) dopamine receptor (Homo sapiens) (UniProt P21728); test: Antagonist activity at human recombinant dopamine D1 receptor expressed in CHOK1 cells assessed as inhibition of agonist-induced cAMP accumulation at 100 uM preincubated for 10 mins prior to agonist addition measured after 30 mins by HTRF assay relative to SCH23390; assay type: functional, cell-based; conditions: CHO-K1
[4] = target: D(2) dopamine receptor (Homo sapiens) (UniProt P14416); test: Antagonist activity at human recombinant dopamine D2 long receptor expressed in CHOK1 cells coexpressing mitochondrial apoaequorin assessed as inhibition of agonist-induced effect at 50 uM after 15 mins by luminometric analysis relative to haloperidol; assay type: cell-based; conditions: CHO-K1
[5] = target: D(2) dopamine receptor (Homo sapiens) (UniProt P14416); test: Agonist activity at human recombinant dopamine D2 long receptor expressed in CHOK1 cells coexpressing mitochondrial apoaequorin at 100 uM by luminometric analysis relative to quinpirol; assay type: cell-based; conditions: CHO-K1
[6] = target: T2, Prostaglandin G/H synthase 2 (Homo sapiens, UniProt P35354); test: Inhibition of COX-2 (unknown origin) using arachidonic acid as substrate assessed as formation of prostanoid products preincubated for 10 mins prior to substrate addition measured after 2 mins by Ellman's method
T2 sequence (P35354 whole entry): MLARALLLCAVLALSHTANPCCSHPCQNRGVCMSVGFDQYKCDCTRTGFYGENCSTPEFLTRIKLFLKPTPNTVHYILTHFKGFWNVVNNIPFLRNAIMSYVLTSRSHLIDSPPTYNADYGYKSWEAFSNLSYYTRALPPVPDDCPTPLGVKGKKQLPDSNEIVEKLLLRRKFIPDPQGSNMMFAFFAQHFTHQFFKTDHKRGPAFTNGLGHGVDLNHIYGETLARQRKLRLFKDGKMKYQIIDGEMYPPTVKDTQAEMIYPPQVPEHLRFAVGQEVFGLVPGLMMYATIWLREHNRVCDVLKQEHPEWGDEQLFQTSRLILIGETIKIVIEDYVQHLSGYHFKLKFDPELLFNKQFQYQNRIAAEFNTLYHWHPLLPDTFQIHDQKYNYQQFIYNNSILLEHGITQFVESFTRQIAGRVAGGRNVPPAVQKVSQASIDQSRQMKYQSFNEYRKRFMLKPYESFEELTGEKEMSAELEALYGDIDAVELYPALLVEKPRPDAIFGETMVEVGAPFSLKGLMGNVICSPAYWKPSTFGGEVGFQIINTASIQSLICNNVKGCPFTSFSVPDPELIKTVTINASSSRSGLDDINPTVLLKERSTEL

[7] = target: T1, Prostaglandin G/H synthase 1; test: Inhibition of COX-1 (unknown origin) using arachidonic acid as substrate assessed as formation of prostanoid products preincubated for 10 mins prior to substrate addition measured after 2 mins by Ellman's method
[8] = target: T3, Angiotensin-converting enzyme (Homo sapiens, UniProt P12821); test: Inhibition of ACE (unknown origin) assessed as 3-Hydroxybutyril-glycil-glycil-glycine conversion to 3-hydroxybutyric acid at 128 uM after 60 mins by WST assay relative to control
[9] = target: D(1A) dopamine receptor (Homo sapiens) (UniProt P21728); test: Agonist activity at human recombinant dopamine D1 receptor expressed in CHOK1 cells assessed as stimulation of cAMP accumulation at 8 uM after 30 mins by HTRF assay relative to SKF81297; assay type: functional, cell-based; conditions: CHO-K1
[10] = target: D(2) dopamine receptor (Homo sapiens) (UniProt P14416); test: Antagonist activity at human recombinant dopamine D2 long receptor expressed in CHOK1 cells coexpressing mitochondrial apoaequorin assessed as inhibition of agonist-induced effect at 8 uM after 15 mins by luminometric analysis relative to haloperidol; assay type: cell-based; conditions: CHO-K1
[11] = target: D(2) dopamine receptor (Homo sapiens) (UniProt P14416); test: Agonist activity at human recombinant dopamine D2 long receptor expressed in CHOK1 cells coexpressing mitochondrial apoaequorin at 8 uM by luminometric analysis relative to quinpirol; assay type: cell-based; conditions: CHO-K1
[12] = target: D(1A) dopamine receptor (Homo sapiens) (UniProt P21728); test: Antagonist activity at human recombinant dopamine D1 receptor expressed in CHOK1 cells assessed as inhibition of agonist-induced cAMP accumulation at 8 uM preincubated for 10 mins prior to agonist addition measured after 30 mins by HTRF assay relative to SCH23390; assay type: functional, cell-based; conditions: CHO-K1
[13] = target: T3, Angiotensin-converting enzyme; test: Inhibition of ACE (unknown origin) assessed as 3-Hydroxybutyril-glycil-glycil-glycine conversion to 3-hydroxybutyric acid at 500 uM after 60 mins by WST assay relative to control
[14] = target: T3, Angiotensin-converting enzyme; test: Inhibition of ACE (unknown origin) assessed as 3-Hydroxybutyril-glycil-glycil-glycine conversion to 3-hydroxybutyric acid after 60 mins by WST assay

T3 sequence (P12821 whole entry): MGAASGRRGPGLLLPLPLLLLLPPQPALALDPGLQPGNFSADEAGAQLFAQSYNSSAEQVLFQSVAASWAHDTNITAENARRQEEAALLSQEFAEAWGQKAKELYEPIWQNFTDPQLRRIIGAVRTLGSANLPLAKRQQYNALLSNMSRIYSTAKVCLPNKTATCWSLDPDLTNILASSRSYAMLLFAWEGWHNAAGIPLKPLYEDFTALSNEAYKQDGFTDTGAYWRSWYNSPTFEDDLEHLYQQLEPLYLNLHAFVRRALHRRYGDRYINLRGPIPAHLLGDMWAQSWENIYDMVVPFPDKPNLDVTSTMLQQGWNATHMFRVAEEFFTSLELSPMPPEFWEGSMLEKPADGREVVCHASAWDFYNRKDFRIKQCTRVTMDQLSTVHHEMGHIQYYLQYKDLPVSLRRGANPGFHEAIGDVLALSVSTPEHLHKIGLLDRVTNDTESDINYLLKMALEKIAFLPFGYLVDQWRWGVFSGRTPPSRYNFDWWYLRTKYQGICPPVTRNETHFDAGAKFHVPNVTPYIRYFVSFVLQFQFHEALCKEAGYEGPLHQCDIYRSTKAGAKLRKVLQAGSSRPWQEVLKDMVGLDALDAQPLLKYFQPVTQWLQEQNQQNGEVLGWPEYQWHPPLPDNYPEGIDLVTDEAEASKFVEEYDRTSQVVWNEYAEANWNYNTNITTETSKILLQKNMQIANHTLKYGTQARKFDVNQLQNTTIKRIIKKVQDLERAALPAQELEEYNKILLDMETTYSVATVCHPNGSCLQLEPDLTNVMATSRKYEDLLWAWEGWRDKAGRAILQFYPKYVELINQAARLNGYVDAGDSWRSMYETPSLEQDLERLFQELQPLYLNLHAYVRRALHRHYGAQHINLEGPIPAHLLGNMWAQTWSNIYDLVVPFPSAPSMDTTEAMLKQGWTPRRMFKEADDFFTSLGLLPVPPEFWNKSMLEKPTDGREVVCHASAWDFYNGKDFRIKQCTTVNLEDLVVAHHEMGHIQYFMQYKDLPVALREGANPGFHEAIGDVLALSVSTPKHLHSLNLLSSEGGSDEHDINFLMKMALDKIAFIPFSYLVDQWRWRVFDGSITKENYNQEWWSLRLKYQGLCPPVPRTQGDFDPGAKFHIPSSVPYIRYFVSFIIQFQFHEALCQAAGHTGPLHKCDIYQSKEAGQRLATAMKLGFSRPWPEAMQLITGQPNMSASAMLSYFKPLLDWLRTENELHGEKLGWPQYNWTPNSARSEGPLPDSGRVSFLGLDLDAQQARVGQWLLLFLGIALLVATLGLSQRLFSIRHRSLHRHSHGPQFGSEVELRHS
T1 sequence (P23219 whole entry): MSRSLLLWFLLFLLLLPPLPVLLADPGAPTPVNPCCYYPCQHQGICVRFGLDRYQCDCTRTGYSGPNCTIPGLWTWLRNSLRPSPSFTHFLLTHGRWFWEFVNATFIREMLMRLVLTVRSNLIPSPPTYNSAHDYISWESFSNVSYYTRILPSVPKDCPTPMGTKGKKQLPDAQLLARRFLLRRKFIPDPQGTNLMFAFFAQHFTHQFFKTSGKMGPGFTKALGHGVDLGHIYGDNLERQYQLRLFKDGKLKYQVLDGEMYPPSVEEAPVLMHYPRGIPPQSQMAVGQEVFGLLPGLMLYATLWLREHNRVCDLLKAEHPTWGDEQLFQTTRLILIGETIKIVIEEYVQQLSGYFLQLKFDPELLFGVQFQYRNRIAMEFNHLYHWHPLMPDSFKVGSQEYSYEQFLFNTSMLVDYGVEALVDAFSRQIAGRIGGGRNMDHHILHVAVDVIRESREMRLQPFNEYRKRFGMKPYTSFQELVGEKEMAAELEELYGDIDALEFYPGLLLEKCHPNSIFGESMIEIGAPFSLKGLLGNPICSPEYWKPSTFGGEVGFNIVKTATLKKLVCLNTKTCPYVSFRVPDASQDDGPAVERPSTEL
Chain of D(2) dopamine receptor (Homo sapiens) (P14416 whole entry): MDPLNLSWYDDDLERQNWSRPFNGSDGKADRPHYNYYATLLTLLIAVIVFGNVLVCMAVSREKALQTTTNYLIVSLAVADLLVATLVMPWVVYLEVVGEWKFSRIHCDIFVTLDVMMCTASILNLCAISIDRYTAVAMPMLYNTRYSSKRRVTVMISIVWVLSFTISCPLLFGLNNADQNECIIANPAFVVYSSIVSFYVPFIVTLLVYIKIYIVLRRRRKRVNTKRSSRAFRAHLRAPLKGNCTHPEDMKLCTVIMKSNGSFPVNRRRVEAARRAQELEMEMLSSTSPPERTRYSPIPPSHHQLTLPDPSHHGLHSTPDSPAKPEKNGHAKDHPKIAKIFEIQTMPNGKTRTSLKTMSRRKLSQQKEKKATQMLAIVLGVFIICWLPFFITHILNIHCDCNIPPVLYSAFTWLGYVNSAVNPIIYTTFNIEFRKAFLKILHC
Chain of D(1A) dopamine receptor (Homo sapiens) (P21728 whole entry): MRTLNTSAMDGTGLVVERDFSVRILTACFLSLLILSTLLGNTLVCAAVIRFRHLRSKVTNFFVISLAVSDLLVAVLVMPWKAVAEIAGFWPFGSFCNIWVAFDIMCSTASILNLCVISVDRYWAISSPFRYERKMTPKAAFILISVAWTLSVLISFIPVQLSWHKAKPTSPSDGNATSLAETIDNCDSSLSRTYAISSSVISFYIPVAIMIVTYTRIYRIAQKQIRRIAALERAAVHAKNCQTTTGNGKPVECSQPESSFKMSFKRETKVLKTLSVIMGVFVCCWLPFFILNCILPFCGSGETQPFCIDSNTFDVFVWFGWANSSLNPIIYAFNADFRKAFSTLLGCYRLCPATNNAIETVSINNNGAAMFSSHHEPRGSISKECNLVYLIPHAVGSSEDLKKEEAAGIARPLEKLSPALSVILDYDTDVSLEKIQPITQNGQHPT

In the case of `CC(C)C(=O)Nc1ccc([N+](=O)[O-])c(C(F)(F)F)c1`, the inhibition [1] is reported as 100%.

With `NC(=O)N/N=C/c1ccc([N+](=O)[O-])o1` the inhibition [1] was 91%.

Compound `CC(CN1c2ccccc2Sc2ccccc21)N(C)C` (stereo not given) has an Activity [2] of -7.4%, an inhibition [3] of 84% and an inhibition [4] of 95%. For the same compound, the Activity [5] was 3.5%.

For `Nc1nc2[nH]cnc2c(=S)[nH]1`, the Activity [2] was 0.2%, the inhibition [3] was 2.3% and the inhibition [4] was 21%. For the same compound, the Activity [5] was 0.61%.

`O=[N+]([O-])c1ccc(O)c2ncccc12` [NITROXOLINE] gave a Ki [6] of 1 µM and an inhibition [1] of 97%.

`Oc1ccc(OCc2ccccc2)cc1` was tested, and the inhibition [1] was 86%.

Compound `CCn1cc(C(=O)O)c(=O)c2ccc(C)nc21` has an inhibition [1] of 34%.

In the case of `COc1cc2nc(N3CCN(C(=O)C4COc5ccccc5O4)CC3)nc(N)c2cc1OC` (stereo not given), the Activity [2] is reported as -4.7%, the inhibition [3] is reported as 102% and the Activity [5] is reported as 2.4%.

`O=C(c1ccc(OCCN2CCCCC2)cc1)c1c(-c2ccc(O)cc2)sc2cc(O)ccc12` was tested, and the Activity [2] was -7.2%, the inhibition [3] was 97% and the inhibition [4] was 88%. It also gave an Activity [5] of 4.7%.

In the case of `C#C[C@]1(O)CC[C@H]2[C@@H]3CCC4=CCCC[C@@H]4[C@H]3C(=C)C[C@@]21CC`, the Activity [2] is reported as 2.8%, the inhibition [3] is reported as 79% and the inhibition [4] is reported as 88%. For the same compound, the Activity [5] was 7.1%.

For `CC/C=C\C/C=C\C/C=C\CCCCCCCC(=O)O` [LINOLENIC ACID], the Ki [7] was 4 µM and the inhibition [1] was 100%.

With `CN(C)CC/C=C1/c2ccccc2COc2ccc(CC(=O)O)cc21` the Activity [2] was -1.7%, the inhibition [3] was 20% and the inhibition [4] was 52%. For the same compound, the Activity [5] was -0.14%.

In the case of `CN(C)CCCN1c2ccccc2CCc2ccc(Cl)cc21`, the Activity [2] is reported as -4.5%, the inhibition [3] is reported as 99% and the inhibition [4] is reported as 92%. The Activity [5] was 13%.

With `CC[C@H]1OC(=O)[C@H](C)[C@@H](O[C@H]2C[C@@](C)(OC)[C@@H](O)[C@H](C)O2)[C@H](C)[C@@H](O[C@@H]2O[C@H](C)C[C@H](N(C)C)[C@H]2O)[C@](C)(O)C[C@@H](C)CN(C)[C@H](C)[C@@H](O)[C@]1(C)O` the inhibition [1] was 68%.

Compound `CCC[C@@]1(CCc2ccccc2)CC(O)=C([C@H](CC)c2cccc(NS(=O)(=O)c3ccc(C(F)(F)F)cn3)c2)C(=O)O1` has an inhibition [8] of 31%.

With `Nc1ccc(/N=N/c2ccccc2)c(N)n1` the inhibition [1] was 23%.

`CN(C)CCC=C1c2ccccc2C=Cc2ccccc21` was tested, and the Activity [2] was -4.7%, the inhibition [3] was 98% and the inhibition [4] was 95%. The Activity [5] was 1%.

Work on `Cc1ccc(-c2cc(C(F)(F)F)nn2-c2ccc(S(N)(=O)=O)cc2)cc1` yielded an Activity [9] of 1.8%, an inhibition [10] of 96% and an Activity [11] of 175%. The inhibition [12] was 95%.

Work on `CC(N)C12CC3CC(CC(C3)C1)C2` (stereo not given) yielded an Activity [2] of -0.8%, an inhibition [3] of -0.4% and an inhibition [4] of 41%. It also gave an Activity [5] of 3.6%.

`Cc1c(O)cccc1C(=O)N[C@@H](CSc1ccccc1)[C@H](O)CN1C[C@H]2CCCC[C@H]2C[C@H]1C(=O)NC(C)(C)C` was tested, and the inhibition [13] was 48%.

For `CCCc1nc2c(C)cc(-c3nc4ccccc4n3C)cc2n1Cc1ccc(-c2ccccc2C(=O)O)cc1`, the inhibition [13] was 97%, the Ki [14] was 6 µM and the inhibition [14] was “Dose-dependent effect”.

For `Cc1nc(Nc2ncc(C(=O)Nc3c(C)cccc3Cl)s2)cc(N2CCN(CCO)CC2)n1` [DASATINIB], the inhibition [13] was 46%, the Ki [14] was 715 µM and the inhibition [14] was “Dose-dependent effect”.

Work on `CC1(C)NC(=O)N(c2ccc([N+](=O)[O-])c(C(F)(F)F)c2)C1=O` yielded an inhibition [1] of 99%.

Work on `NC1=NCC2c3ccccc3Cc3ccccc3N12` (stereo not given) yielded an Activity [2] of -1%, an inhibition [3] of 96% and an inhibition [4] of 5.5%. The Activity [5] was -0.33%.

`O=C1CN(/N=C/c2ccc([N+](=O)[O-])o2)C(=O)N1` was tested, and the inhibition [1] was 66%.

For `O=C(O)CCCCC1CCSS1` (stereo not given), the inhibition [1] was 95%.

In the case of `C[C@H](CS)C(=O)N1CCC[C@H]1C(=O)O` [CAPTOPRIL], the Ki [6] is reported as 12 µM, the Ki [7] is reported as 17 µM and the inhibition [1] is reported as 48%.

Work on `CCc1cccc2c3c([nH]c12)C(CC)(CC(=O)O)OCC3` (stereo not given) yielded an Activity [2] of -1.9%, an inhibition [3] of -1.4% and an inhibition [4] of 13%. For the same compound, the Activity [5] was 0.96%.

With `O=C1c2c(O)ccc(O)c2C(=O)c2c(NCCNCCO)ccc(NCCNCCO)c21` the Activity [2] was 66%, the inhibition [3] was 29% and the inhibition [4] was 81%. For the same compound, the Activity [5] was -0.4%.

For `O=C(O)[C@@H]1CCCN1` [PROLINE], the inhibition [13] was 93%, the Ki [14] was 86 µM and the inhibition [14] was “Dose-dependent effect”.

In the case of `O[C@@H](c1cc(C(F)(F)F)nc2c(C(F)(F)F)cccc12)[C@H]1CCCCN1` (relative stereo), the Activity [2] is reported as 0.6%, the inhibition [3] is reported as 82% and the inhibition [4] is reported as 90%. It also gave an Activity [5] of 45%.

With `CO[C@@H]1[C@@H](OC(N)=O)[C@@H](O)[C@H](Oc2ccc3c(O)c(NC(=O)c4ccc(O)c(CC=C(C)C)c4)c(=O)oc3c2C)OC1(C)C` [NOVOBIOCIN] the inhibition [13] was 75%, the Ki [14] was 167 µM and the inhibition [14] was “Dose-dependent effect”.

`NS(=O)(=O)c1cc(C(=O)O)c(NCc2ccco2)cc1Cl` gave an inhibition [1] of 36%.

For `C[C@@H]1O[C@@H]1P(=O)(O)O`, the Activity [2] was -1.2%, the inhibition [3] was -1.3% and the inhibition [4] was 29%. For the same compound, the Activity [5] was 0.09%.
